{"source": "patent US10653688B2", "about": "“6-(6-membered heteroaryl and aryl)isoquinolin-3-yl carboxamides and preparation and use thereof” (Samumed, LLC, priority 2017, dated 2020)", "key": {"[1]": {"tested_on": "SW480 colon carcinoma cells", "experiment": "Cell viability assay (CellTiter-Glo)", "assay_type": "cell-based, human", "settings": "Homo sapiens; for EC50: 96 h, four days, CellTiter-Glo; for inhibition at 10 µM: read-out: percent inhibition at 10 μM (given for EC50 >10 μM), 10 μM"}, "[2]": {"tested_on": "Tau phosphorylation at Ser396 (pSer396) in SH-SY5Y cells", "experiment": "Tau phosphorylation at Ser396 (pSer396) cell assay, ELISA/western blot", "assay_type": "cell-based, human", "settings": "Homo sapiens; SH-SY5Y cells, overnight (16-18 h); read-out: pSer396 Tau EC50"}, "[3]": {"tested_on": "Cyclin D1 phosphorylation at Threonine 286 (pCcnD1) over total Cyclin D1 in SH-SY5Y cells", "experiment": "phosphoCcnD1 to total CcnD1 ratio (PTT) cell-based assay, western blot", "settings": "Homo sapiens, 48 hours", "description": "Representative compounds were screened using the cell-based assay procedure for the ratio of signal of Cyclin D1 phosphorylation at Threonine 286 (pCcnD1) over the signal of total Cyclin D1 (CcnD1) (abbreviated: phosphoCcnD1 to total CcnD1 ratio, or PTT) as described below.\nSH-SY5Y cells (human neuroblastoma, Sigma, Saint-Louis, Mo.) were cultured in 1:1 DMEM/F-12 medium supplemented with 15% FBS, 1% non-essential amino acid, and 1% penicillin/streptomycin.\nSH-SY5Y cells were seeded at 1.0×10^5 cells in 1 mL per well in a 24-well plate. After cell adherence was confirmed, DMSO-resuspended Samumed compounds were dispensed to eight wells as a serial dilution from 10 μM to 4.6 nM final concentration in medium, or at 1.1 μM to 4.6 nM with particularly potent compounds. Cells were exposed to Samumed compounds for 48 hours in a 37° C. incubator.\nWells of compound-treated cells were visually checked for cell death before being washed with 500 μL per well of 1×DPBS supplemented with phosphatase inhibitor diluted to 1×. Cells were then lysed with 90 μL 1×RIPA buffer supplemented with phosphatase and protease inhibitors (each diluted to a final 1×). After scraping, 60 μL of cell lysate from each sample was used to dilute 4×LDS (ThermoFisher, NP0007) and 20×XT reducing agent (Bio-Rad, 1610792), each diluted to 1× final. All samples were then denatured via boiling at 95° C. Denatured cell sample lysates were directly tested for pCcnD1 and total CcnD1 signal by Western blot techniques and analysis. Specifically, denatured lysates were directly transferred to NuPAGE™ 4-12% Bis-Tris Midi Protein Gels, 26-well gels (ThermoFisher, WG1403BOX). Gels were transferred to […] nitrocellulose membranes via iBlot™ Transfer Stack, nitrocellulose, regular size (ThermoFisher, IB301031). Membranes were blocked with 1×TBS, 5% milk (Bio-Rad, 1706404XTU) before being probed for overnight with either anti-pCcnD1 primary antibody (Cell Signaling Technology, 2978S) or anti-total CcnD1 primary antibody (Cell Signaling Technology, 3300S) diluted 1:500 in 1×TBS-0.05% Tween-20, 3% milk. After overnight incubation in primary antibodies, membranes were washed profusely with 1×TBS-0.05% Tween-20 and probed for 1 hour with secondary anti-rabbit/HRP conjugate (Cell Signaling Technology, 7074S) diluted 1:1000 in 1×TBS-0.05% Tween-20, 3% milk. After incubation in secondary antibody, membranes were washed with 1×TBS-0.05% Tween-20.\nProbed and washed membranes were developed for pCcnD1 or total CcnD1 signal with SuperSignal™ West Femto Maximum Sensitivity Substrate (ThermoFisher, 34096) using the ChemoDoc-It^2 (UVP) and related GelDocIt imaging software. Blots were then stripped, blocked, stained with anti-β-actin/HRP conjugate antibody (Cell Signaling Technology, 5125S), developed, and imaged for housekeeping β-actin protein control as previously described. Densitometry was measured with ImageJ (NIH) and signal was used to plot, draw the curves fitting, and determine the EC50 values in GraphPad Prism for tested Samumed compounds."}, "[4]": {"target": "recombinant DYRK1A kinase (Homo sapiens (Human), UniProt Q13627)", "experiment": "DYRK1A kinase assay (Ser/Thr 18 peptide Z-lyte, FRET)"}, "[5]": {"tested_on": "pT212Tau in Dyrk1a- and MAPT-overexpressing HEK293T cells", "experiment": "Tau phosphorylation at Threonine 212 (pT212Tau) sandwich ELISA in double transfected cells", "settings": "Homo sapiens, HEK-293T, read-out: Thr212 EC50 (μM)", "procedure": "HEK293T cells (transfectable human embryonic kidney cells) were cultured in DMEM medium supplemented with 10% FBS and 1% penicillin/streptomycin.\nHEK293T cells were transiently transfected to overexpress Dyrk1a and microtubule-associated protein Tau (MAPT) genes. Specifically, Dyrk1a and MAPT expression vectors were obtained from OriGene (10 μg of each, catalog numbers SC314641 and RC216166, respectively). […] HEK293T cells were seeded at 1.0×10^7 cells in 10 mL per T-75 flask. […] One T-75 flask was designated as a no-vector negative control for pT212Tau signal.\nAfter 4-6 hours of incubation in transfection reagents, transiently double transfected HEK293T cells were dissociated by treatment with trypsin EDTA and seeded at 1.0×10^5 cells in 100 μL per well in 96-well plates. No-vector negative controls were seeded in separate 96-well plates to avoid the risk of the negative control cells picking up the overexpression during incubation.\n96-well flat-bottom plates were coated with 100 μL per well anti-HT7 capture antibody (ThermoFisher, MN1000) diluted 1:300 in 1×PBS at 4° C. overnight, with shaking at 500 rpm.\nCells were then lysed with 100 μL 1×RIPA buffer supplemented with phosphatase and protease inhibitors (each diluted to a final 1×). […] V-bottom plates were centrifuged at 4000 rpm, 4° C., for 15 minutes, and 100 μL of lysate supernatant from each well was directly tested for pT212Tau signal by sandwich ELISA."}, "[6]": {"settings": "DYRK1A kinase, head says EC50, method says IC50, ATP 30 μM"}}, "note": "Like-named read-outs stand apart in the source and are kept apart here."}
{"smiles": "O=C(Nc1cc2cc(-c3cncc(CN4CCC(O)CC4)c3)ccc2cn1)C1CC1", "note": "[Compound 53, N-(6-(5-((4-Hydroxypiperidin-1-yl)methyl)pyridin-3-yl)isoquinolin-3-yl) cyclopropanecarboxamide]", "values": [{"measurement": "EC50", "setting": "[1]", "result": 2350, "unit": "nM"}, {"measurement": "EC50", "setting": "[2]", "result": 705, "unit": "nM"}, {"measurement": "EC50", "setting": "[3]", "result": 30, "unit": "nM"}, {"measurement": "EC50", "setting": "[4]", "result": 2, "unit": "nM"}, {"measurement": "EC50", "setting": "[5]", "result": 0.003, "unit": "µM"}]}
{"smiles": "CN1CCN(Cc2cncc(-c3ccc4cnc(NC(=O)C5CC5)cc4c3)c2)CC1", "note": "[Compound 56, N-(6-(5-((4-Methylpiperazin-1-yl)methyl)pyridin-3-yl)isoquinolin-3-yl) cyclopropanecarboxamide]", "values": [{"measurement": "EC50", "setting": "[1]", "result": 3300, "unit": "nM"}, {"measurement": "EC50", "setting": "[2]", "result": 4900, "unit": "nM"}, {"measurement": "EC50", "setting": "[3]", "result": 45, "unit": "nM"}, {"measurement": "EC50", "setting": "[4]; [6]", "result": 5, "unit": "nM"}, {"measurement": "EC50", "setting": "[5]", "result": 0.045, "unit": "µM"}]}
{"smiles": "O=C(Nc1cc2cc(-c3cncc(CN4CCOCC4)c3)ccc2cn1)C1CC1", "note": "[Compound 57, N-(6-(5-(Morpholinomethyl)pyridin-3-yl)isoquinolin-3-yl) cyclopropanecarboxamide]", "values": [{"measurement": "EC50", "setting": "[1]", "result": 3180, "unit": "nM"}, {"measurement": "EC50", "setting": "[2]", "result": 2000, "unit": "nM"}, {"measurement": "EC50", "setting": "[3]", "result": 193, "unit": "nM"}, {"measurement": "EC50", "setting": "[4]; [6]", "result": 4, "unit": "nM"}, {"measurement": "EC50", "setting": "[5]", "result": 0.05, "unit": "µM"}]}
{"smiles": "[2H]c1nc([2H])c(-c2ccc3cnc(NC(=O)CN4CCCC4)cc3c2)c([2H])c1[2H]", "note": "[Compound 60, N-(6-(pyridin-3-yl-d4)isoquinolin-3-yl)-2-(pyrrolidin-1-yl)acetamide]", "values": [{"measurement": "EC50", "setting": "[1]", "result": 3940, "unit": "nM"}, {"measurement": "EC50", "setting": "[2]", "result": 1900, "unit": "nM"}, {"measurement": "EC50", "setting": "[3]", "result": 250, "unit": "nM"}, {"measurement": "EC50", "setting": "[4]", "result": 10, "unit": "nM"}, {"measurement": "EC50", "setting": "[5]", "result": 0.126, "unit": "µM"}]}
{"smiles": "CN1CCC(C(=O)Nc2cc3cc(-c4cnccn4)ccc3cn2)CC1", "note": "[Compound 75, 1-Methyl-N-(6-(pyrazin-2-yl)isoquinolin-3-yl)piperidine-4-carboxamide]", "values": [{"measurement": "EC50", "setting": "[1]", "result": "> 10000", "unit": "nM"}, {"measurement": "inhibition at 10 µM", "setting": "[1]", "result": 44.5, "unit": "%"}, {"measurement": "EC50", "setting": "[2]", "result": "> 10000", "unit": "nM"}, {"measurement": "EC50", "setting": "[3]", "result": 447, "unit": "nM"}, {"measurement": "EC50", "setting": "[4]", "result": 10, "unit": "nM"}, {"measurement": "EC50", "setting": "[5]", "result": 0.089, "unit": "µM"}]}
{"smiles": "Cc1cncc(-c2ccc3cnc(NC(=O)CN4CCOCC4)cc3c2)c1", "note": "[Compound 146, N-(6-(5-Methylpyridin-3-yl)isoquinolin-3-yl)-2-morpholinoacetamide]", "values": [{"measurement": "EC50", "setting": "[1]", "result": "> 10000", "unit": "nM"}, {"measurement": "inhibition at 10 µM", "setting": "[1]", "result": 23.1, "unit": "%"}, {"measurement": "EC50", "setting": "[2]", "result": 7800, "unit": "nM"}, {"measurement": "EC50", "setting": "[3]", "result": 68, "unit": "nM"}, {"measurement": "EC50", "setting": "[4]; [6]", "result": 9, "unit": "nM"}, {"measurement": "EC50", "setting": "[5]", "result": 0.054, "unit": "µM"}]}
